The values that follow come from patent US20260234149A1, “FUSED BICYCLIC COMPOUND” (CHIA TAI TIANQING PHARMACEUTICAL GROUP CO., LTD., priority 2022, published 2026).

pIC50: −log10 of the molar value.

For test [1], the system named is MDA-MB-436 cells. Nature of the test: Assay on inhibitory activity for MDA-MB-436 cell proliferation (CCK-8). The class given is cell-based. Particulars: 168 h incubation, CCK-8, absorbance at 450 nm. On the procedure: 1.1 Assay on inhibitory activity for MDA-MB-436 cell proliferation MDA-MB-436 cells in a good growth state were collected into a centrifuge tube, adjusted to a cell density of 2×10^4 cells/mL using a complete medium (DMEM high glucose+[…]+1× insulin-transferrin-selenium (JTS-G)+16 μg/mL reduced glutathione), and seeded in a 96-well plate (100 μL/well), and the plate was incubated overnight in a cell incubator Compounds were added using a pipettor, such that the final concentrations of the compounds were 400 nM-0.02 nM. The wells were set in duplicate, and a control well was set. After 168 h of incubation in the cell incubator, the assay reagent CCK-8 (manufacturer: Dojindo Laboratories, Beijing; 10 μL/well) was added. After 1.5 h of incubation in the cell incubator, the absorbance was measured at 450 nm on a PerkinElmer Envision microplate reader.

The target of test [2] is T1, PARP1 (Homo sapiens, UniProt P09874).
T1 construct: purchased BPS 80551
T1 sequence (P09874 whole entry): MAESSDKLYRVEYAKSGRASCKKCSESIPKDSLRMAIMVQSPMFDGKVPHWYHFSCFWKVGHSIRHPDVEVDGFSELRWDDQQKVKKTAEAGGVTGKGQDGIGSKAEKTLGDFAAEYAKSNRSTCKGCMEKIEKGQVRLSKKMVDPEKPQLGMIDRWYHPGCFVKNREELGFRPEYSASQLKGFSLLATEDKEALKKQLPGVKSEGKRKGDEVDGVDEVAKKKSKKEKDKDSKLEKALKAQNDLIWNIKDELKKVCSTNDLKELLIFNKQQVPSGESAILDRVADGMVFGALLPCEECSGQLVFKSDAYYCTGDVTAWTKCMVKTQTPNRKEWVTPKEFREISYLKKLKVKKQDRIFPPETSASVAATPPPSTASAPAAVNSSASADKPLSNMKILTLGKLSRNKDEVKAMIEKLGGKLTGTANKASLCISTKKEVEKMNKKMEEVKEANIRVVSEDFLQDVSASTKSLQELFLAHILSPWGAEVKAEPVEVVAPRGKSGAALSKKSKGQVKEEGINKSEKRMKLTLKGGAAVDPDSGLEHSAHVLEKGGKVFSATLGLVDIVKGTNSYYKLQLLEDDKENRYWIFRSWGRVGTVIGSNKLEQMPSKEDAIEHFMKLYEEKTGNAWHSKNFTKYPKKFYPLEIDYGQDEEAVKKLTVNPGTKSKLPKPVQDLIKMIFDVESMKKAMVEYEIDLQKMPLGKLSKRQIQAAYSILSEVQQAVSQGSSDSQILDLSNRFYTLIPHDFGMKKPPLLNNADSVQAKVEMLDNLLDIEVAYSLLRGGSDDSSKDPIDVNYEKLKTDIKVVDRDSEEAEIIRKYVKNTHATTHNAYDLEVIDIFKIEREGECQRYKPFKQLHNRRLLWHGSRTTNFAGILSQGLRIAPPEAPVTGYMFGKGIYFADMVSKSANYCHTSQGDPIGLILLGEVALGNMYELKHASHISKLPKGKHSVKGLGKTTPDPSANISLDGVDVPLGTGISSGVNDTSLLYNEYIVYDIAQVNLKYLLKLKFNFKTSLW
Nature of the test: Assay on PARP1 protein activity (chemiluminescence assay kit). Format: biochemical. To be noted: PARP1 enzyme, 1 h room temperature.

The target of test [3] is T2, PARP2 (Homo sapiens, UniProt Q9UGN5).
T2 construct: purchased BPS 80502
T2 sequence (Q9UGN5 whole entry): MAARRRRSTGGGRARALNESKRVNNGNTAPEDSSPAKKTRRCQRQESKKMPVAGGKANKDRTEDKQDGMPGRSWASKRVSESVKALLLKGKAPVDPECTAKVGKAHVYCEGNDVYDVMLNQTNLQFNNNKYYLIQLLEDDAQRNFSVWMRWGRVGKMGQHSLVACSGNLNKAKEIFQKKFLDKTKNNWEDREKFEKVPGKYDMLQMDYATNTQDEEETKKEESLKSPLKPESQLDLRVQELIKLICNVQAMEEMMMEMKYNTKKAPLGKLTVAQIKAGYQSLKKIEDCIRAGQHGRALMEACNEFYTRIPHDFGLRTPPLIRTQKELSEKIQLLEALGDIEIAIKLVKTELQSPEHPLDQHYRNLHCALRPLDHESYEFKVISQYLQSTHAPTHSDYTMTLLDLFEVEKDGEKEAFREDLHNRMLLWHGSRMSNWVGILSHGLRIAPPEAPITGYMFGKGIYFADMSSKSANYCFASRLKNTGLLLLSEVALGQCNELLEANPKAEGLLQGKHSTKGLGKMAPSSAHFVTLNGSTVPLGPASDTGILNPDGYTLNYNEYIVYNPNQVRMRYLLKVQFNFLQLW
Put plainly: PARP2-Tracer activity assay (FP method). The class given is binding. On the procedure:
(§1) The enzyme inhibition activity of the compounds against PARP1/2-Tracer was tested using the FP method. First, 100 nL of inhibitors with a final concentration of 1% DMSO were transferred to a 384-well reaction plate (Corning 4514) using Echo655. Then, 5 μL of PARP1/2 (BPS, Cat #80501/80502) enzyme solution was added to each well, followed by centrifugation at 1000 RPM for 1 min at room temperature, and the reaction was allowed to proceed for 10 min. Subsequently, 5 μL of Tracer (ICE, Cat #001315-009) solution was added to each well, followed by centrifugation at 1000 RPM for 1 min at room temperature, and the reaction was allowed to proceed for 60 min. PARP1/2 and Tracer were prepared in a buffer containing 50 mM Tris (pH 8.0), 10 mM MgCl2, 150 mM NaCl, and 0.001% Triox-100, with final concentrations of 5/10 nM and 2.5 nM, respectively. Finally, the FP signal was read using BMG (PHERAstar FSX), and the IC50 values and nonlinear regression curve fitting were obtained using GraphPad Prism software.

In test [4] the target is T1, PARP1. Put plainly: PARP1-Tracer activity assay (FP method). The class given is binding. The protocol: as §1

`CNC(=O)n1cc2c(n1)CN(C1CN(Cc3ccc4cc(C(F)(F)F)c(=O)[nH]c4c3)[C@@H]1C)C2` (single isomer, unassigned) [Compound 35] had a pIC50 in test [1] of at least 7.30.

For the molecule `CNC(=O)n1cc2c(n1)CN(C1CN(Cc3ccc4cc(C(F)(F)F)c(=O)[nH]c4c3)[C@H]1C)C2` (single isomer, unassigned) [Compound 36], the negative logarithm of the IC50 (pIC50) in test [1] (Homo sapiens, MDA-MB-436) is at least 7.30; in test [2] it was at least 8.00.

On to `CNC(=O)n1cc2c(n1)CN(C1CN(Cc3ccc4cc(C5CC5)c(=O)[nH]c4c3)[C@@H]1C)C2` (single isomer, unassigned) [Compound 40], for which, in test [1], the pIC50 is at least 7.30.

The molecule `CCc1cc2ccc(CN3CC(N4Cc5cn(C(=O)NC)nc5C4)C3)cc2[nH]c1=O` [Compound 1] gave a pIC50 in test [1] (Homo sapiens, MDA-MB-436) of at least 7.30.

For `CNC(=O)n1cc2c(n1)CN(C1CN(Cc3ccc4cc(C5CC5)c(=O)[nH]c4c3)C1)C2` [Compound 2], in test [2], the pIC50 is at least 9.00.

As for `CCc1cc2ccc(CN3CC(N4Cc5cn(C(=O)NC6CC6)nc5C4)C3)cc2[nH]c1=O` [Compound 4], the pIC50 in test [1] (Homo sapiens, MDA-MB-436) was at least 7.30.

Consider `CCc1cc2ncc(CN3CC(N4Cc5cn(C(=O)NC6CC6)nc5C4)C3)cc2[nH]c1=O` [Compound 5], for which the pIC50 in test [1] (Homo sapiens, MDA-MB-436) is at least 7.30.

On to `CCc1cc2ncc(CN3CC(N4Cc5nc(C(=O)NC)sc5C4)C3)cc2[nH]c1=O` [Compound 7], for which the pIC50 in test [1] (Homo sapiens, MDA-MB-436) is at least 7.30.

For the molecule `CCc1cc2ccc(CN3CC(N4Cc5cn(C(=O)NC(C)C)nc5C4)C3)cc2[nH]c1=O` [Compound 9], the pIC50 in test [1] (Homo sapiens, MDA-MB-436) is at least 7.30.

With `CCc1cc2ncc(CN3CC(N4Cc5cn(C(=O)NC)nc5C4)C3)cc2[nH]c1=O` [Compound 10], the pIC50 in test [1] (Homo sapiens, MDA-MB-436) was at least 7.30.

Take `O=C(NC1CC1)n1cc2c(n1)CN(C1CN(Cc3ccc4cc(C5CC5)c(=O)[nH]c4c3)C1)C2` [Compound 11]: the pIC50 in test [1] (Homo sapiens, MDA-MB-436) was at least 7.30.

Take `CCNC(=O)n1cc2c(n1)CN(C1CN(Cc3ccc4cc(CC)c(=O)[nH]c4c3)C1)C2` [Compound 13]: in test [1] (Homo sapiens, MDA-MB-436), the pIC50 is at least 7.30.

Consider `[2H]C([2H])([2H])NC(=O)n1cc2c(n1)CN(C1CN(Cc3ccc4cc(CC)c(=O)[nH]c4c3)C1)C2` [Compound 14], for which, in test [1] (Homo sapiens, MDA-MB-436), the pIC50 is at least 7.30.

For `CNC(=O)n1cc2c(n1)CN(C1CN(Cc3ccc4c5c(c(=O)[nH]c4c3)CCC5)C1)C2` [Compound 15], the pIC50 in test [1] (Homo sapiens, MDA-MB-436) is at least 7.30.

The molecule `CCc1cc2c(F)cc(CN3CC(N4Cc5cn(C(=O)NC)nc5C4)C3)cc2[nH]c1=O` [Compound 16] showed a pIC50 in test [1] (Homo sapiens, MDA-MB-436) of at least 7.30.

In the case of `CNC(=O)n1cc2c(n1)CN(C1CN(Cc3ccc4cc(C(F)(F)F)c(=O)[nH]c4c3)C1)C2` [Compound 24], the values for the pIC50 in test [3], in test [2] and in test [4] were below 6.30, at least 9.00 and 8.61, respectively.

Molecule `CCc1cc2ccc(CN3C[C@@H](N4Cc5cn(C(=O)NC)nc5C4)[C@@H]3C)cc2[nH]c1=O` [Compound 39] had a pIC50 in test [1] (Homo sapiens, MDA-MB-436) of at least 7.30.

Regarding `CNC(=O)n1cc2c(n1)CN([C@@H]1CN(Cc3ccc4cc(C5CC5)c(=O)[nH]c4c3)[C@H]1C)C2` [Compound 43], the pIC50 in test [1] (Homo sapiens, MDA-MB-436) was at least 7.30.

Regarding `CCc1nc2ccc(CN3C[C@H](N4Cc5cn(C(=O)NC)nc5C4)[C@@H]3C)cc2[nH]c1=O` [Compound 45], the pIC50 was below 6.30 in test [3], at least 9.00 in test [2] and 8.60 in test [4].

With `CCc1cc2ncc(CN3C[C@H](N4Cc5cn(C(=O)NC)nc5C4)[C@@H]3C)cc2[nH]c1=O` [Compound 47], the pIC50 in test [1] is at least 7.30.
